For series [1] the following is noted: cited from earlier work.
The nature of series [2]: Pharmacokinetics of gefitinib in rats, alone and coadministered with CJ (serum, LC-MS/MS). It is filed as in vivo. Conditions: for Change (increase) of AUC0-t of gefitinib / Change (increase) of Cmax of gefitinib: coadministration with CJ (5.0 g/kg of cranberry) vs gefitinib alone, p < 0.05; for Change (increase) of AUC0-t of gefitinib / Change (increase) of Cmax of gefitinib / AUC(0-t) / Cmax / MRT / Tmax: rats; for AUC(0-t) / Cmax / MRT / Tmax: male, Sprague-Dawley, rat, serum, po, 50 mg/kg, mean ± S.E., n = 5. The procedure:
Twelve male Sprague-Dawley rats (300–400 g) were supplied by BioLASCO Taiwan Co., Ltd. […] […] Rats were fasted for 12 h before dosing, and food was offered 3 h after drug administration. […] The serum was collected after centrifugation at 10,000× g for 15 min and stored at −20 °C until analysis.
Briefly, 50 μL of serum was partitioned with an equal volume of ethyl acetate containing erlotinib (0.5 μg/mL) as internal standard. The ethyl acetate layer was evaporated under N2 gas to dryness and reconstituted with 50 μL of acetonitrile containing 0.1% formic acid, and then 5 μL was subject to LC-MS/MS analysis.
The mobile phase consisted of 0.1% formic acid (A) and acetonitrile containing 0.1% formic acid (B), and a gradient elution was programmed as follows: A/B: 80/20 (0–1.0 min), 0/100 (1.0–3.5 min) and 80/20 (3.5–6.5 min). The flow rate was 0.2 mL/ min. Nitrogen was used as sheath gas at 50 arbitrary units and auxiliary gas at 10 arbitrary units. […] ESI-MS spectra were recorded in the positive ion mode.
Pharmacokinetic parameters were calculated by the noncompartment model of Phoenix WinNonlin® (version 8.1 Pharsight Corporation, St. Louis, MO, USA). The peak serum concentration (Cmax) was calculated based on experimental measurement. The areas under the serum concentration–time curves (AUC0-t) from time zero to last were calculated by the trapezoidal rule. Each pharmacokinetic parameter was compared among various treatment groups using one-way analysis of variance (ANOVA) with Scheffe’s test. Other studies were statistically compared using unpaired Student’s t-test. Statistical significance level was set at p < 0.05.

[3] abbreviates: gefitinib 50 mg/kg oral + water.
The mark [4] stands for this setting: gefitinib 50 mg/kg oral coadministered with CJ (5.0 g/kg of cranberry).

Usually AUC(0-t) stands for the area under the concentration-time curve up to a stated or last time point. What is called Cmax is the peak of the concentration-time curve. A word on the MRT: it is the average time that molecules of a dose stay in the body. Broadly, the Tmax is the time from dosing to the highest level. Consider `COc1cc2ncnc(Nc3ccc(F)c(Cl)c3)c2cc1OCCCN1CCOCC1` [Gefitinib], for which, in series [1], the Bioavailability is on record as 57–59% and the Elimination half-life is reported as above 24 h. Besides, in series [2], the “Change (increase) of AUC0-t of gefitinib” value is recorded as “(+55%)” and the “Change (increase) of Cmax of gefitinib” value is given as “(+28%)”. Moreover, in series [2] (listed as gefitinib), the “Change (increase) of AUC0-t of gefitinib” value worked out at 55% and the “Change (increase) of Cmax of gefitinib” value turned out to be 28%. Moreover, in series [2] (setting [3]), the AUC(0-t) was 19500 ng·h/mL, the Cmax was found to be 1800 ± 300 ng/mL, the MRT is 8.52 h and the Tmax was 4.4 h. Besides, in series [2] (setting [4]), the AUC(0-t) is 30300 ng·h/mL, the Cmax stood at 2300 ± 200 ng/mL, the MRT is 9.05 h and the Tmax was 3.6 h.

With `Oc1cc2ncnc(Nc3ccc(F)c(Cl)c3)c2cc1OCCCN1CCOCC1` [O-desmethyl gefitinib], the “Concentrations of O-desmethyl gefitinib in serum” value in series [2] (rat serum samples after oral gefitinib 50 mg/kg, calibration range 0.50–0.03 μg/mL) is “below the LLOQ”.

The values above are taken from paper PMC9501900 (Molecules, 2022).
